Earlier results, collected in patent US20250093362A1, “HIGH-THROUGHPUT ENGINEERING OF MOLECULAR GLUES” (Frontier Medicines Corporation, priority 2021, published 2025).

Target: CDK12-cyclin K and CUL4 adaptor protein DDB1 (Homo sapiens, UniProt Q16531+Q9NYV4)
Conditions: analog of CR8 lacking a single methylene group; Nat. 2020, 585 (7824), 293

CDK12-cyclin K and CUL4 adaptor protein DDB1, sequence (Q9NYV4 713-1052 limits assumed): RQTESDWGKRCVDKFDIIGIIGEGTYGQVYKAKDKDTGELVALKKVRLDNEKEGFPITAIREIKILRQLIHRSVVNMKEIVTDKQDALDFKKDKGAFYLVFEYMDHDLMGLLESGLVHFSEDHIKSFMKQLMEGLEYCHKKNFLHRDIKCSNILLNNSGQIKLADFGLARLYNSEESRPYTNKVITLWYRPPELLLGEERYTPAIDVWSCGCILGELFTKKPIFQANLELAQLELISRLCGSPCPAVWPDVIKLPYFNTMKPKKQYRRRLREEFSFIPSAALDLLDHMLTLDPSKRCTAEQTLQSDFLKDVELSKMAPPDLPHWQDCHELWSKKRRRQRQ
CDK12-cyclin K and CUL4 adaptor protein DDB1, sequence (O75909 1-267 partner limits assumed): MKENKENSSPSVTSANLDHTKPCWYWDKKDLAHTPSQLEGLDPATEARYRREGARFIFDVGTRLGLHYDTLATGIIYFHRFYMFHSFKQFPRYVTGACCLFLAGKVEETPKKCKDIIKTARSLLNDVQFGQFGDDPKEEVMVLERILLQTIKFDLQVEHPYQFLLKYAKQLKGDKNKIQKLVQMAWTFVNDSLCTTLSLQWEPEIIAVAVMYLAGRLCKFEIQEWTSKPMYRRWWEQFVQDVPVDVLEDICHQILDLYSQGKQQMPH
CDK12-cyclin K and CUL4 adaptor protein DDB1, sequence (Q16531 whole entry): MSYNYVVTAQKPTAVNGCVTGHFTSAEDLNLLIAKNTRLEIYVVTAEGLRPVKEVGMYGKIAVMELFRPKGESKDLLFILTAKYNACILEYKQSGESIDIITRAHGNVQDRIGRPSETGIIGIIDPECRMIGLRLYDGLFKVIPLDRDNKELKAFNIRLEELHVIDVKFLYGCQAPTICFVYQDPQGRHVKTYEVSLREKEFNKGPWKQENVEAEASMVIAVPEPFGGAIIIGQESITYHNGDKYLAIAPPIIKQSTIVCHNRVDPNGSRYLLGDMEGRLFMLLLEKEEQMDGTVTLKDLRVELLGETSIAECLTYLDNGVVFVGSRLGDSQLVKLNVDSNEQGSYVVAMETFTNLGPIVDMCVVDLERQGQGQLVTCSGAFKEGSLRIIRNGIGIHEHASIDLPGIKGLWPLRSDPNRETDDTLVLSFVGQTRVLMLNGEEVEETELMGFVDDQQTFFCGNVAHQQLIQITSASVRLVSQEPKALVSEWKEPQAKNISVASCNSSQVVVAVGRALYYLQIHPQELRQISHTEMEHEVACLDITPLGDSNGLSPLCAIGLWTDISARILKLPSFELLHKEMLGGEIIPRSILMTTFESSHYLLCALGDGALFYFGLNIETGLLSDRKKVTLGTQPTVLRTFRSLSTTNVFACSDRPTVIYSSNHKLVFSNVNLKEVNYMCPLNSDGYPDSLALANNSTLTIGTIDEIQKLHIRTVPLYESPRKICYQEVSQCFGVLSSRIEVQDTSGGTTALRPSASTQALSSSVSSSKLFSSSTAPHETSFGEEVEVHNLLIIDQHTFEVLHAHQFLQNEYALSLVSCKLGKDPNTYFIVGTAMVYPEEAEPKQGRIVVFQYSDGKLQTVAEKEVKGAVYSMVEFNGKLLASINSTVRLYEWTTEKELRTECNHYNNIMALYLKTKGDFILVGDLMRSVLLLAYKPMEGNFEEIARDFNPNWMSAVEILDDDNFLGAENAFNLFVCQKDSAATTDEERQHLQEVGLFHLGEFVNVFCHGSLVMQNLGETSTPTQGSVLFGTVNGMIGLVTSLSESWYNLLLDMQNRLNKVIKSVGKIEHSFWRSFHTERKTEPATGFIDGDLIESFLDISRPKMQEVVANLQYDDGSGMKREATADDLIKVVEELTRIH

driving formation of the ternary complex of CDK12-cyclin K and DDB1: ineffectual
Compound: CC[C@H](CO)Nc1nc(Nc2ccc(-c3ccccn3)cc2)c2ncn(C(C)C)c2n1 [DRF053]
